# “Also recorded” adds a separate entry of the source.
# Test system: glycosylated hemoglobin level (HbA1C)
# Experiment: Clinical study of ranolazine (IV dose, then oral sustained release) vs placebo in patients having coronary disease: HbA1C
# Type: in vivo, human
# Source text: Baseline is in-hospital visit prior to hospitalization.
# [1] = Diabetes at enrollment, ranolazine group (n = 1098), Month 16
# [2] = No Diabetes at enrollment, ranolazine group (n = 2170), Final Visit
# [3] = No Diabetes at enrollment, ranolazine group (n = 2170), Month 4
# [4] = No Diabetes at enrollment, ranolazine group (n = 2170), Month 8
# [5] = No Diabetes at enrollment, ranolazine group (n = 2170), Month 16
smiles,measurement,setting,value
"COc1ccccc1OCC(O)CN1CCN(CC(=O)Nc2c(C)cccc2C)CC1 (racemic) [Ranolazine, (±)-N-(2,6-dimethylphenyl)-4-[2-hydroxy-3-(2-methoxyphenoxy)-propyl]-1-piperazineacetamide]",Proportion of patients with HbA1c ≧7% by diabetes at enrollment,"Diabetes at enrollment, ranolazine group (n = 1098), Baseline",57%
same,Proportion of patients with HbA1c ≧7% by diabetes at enrollment,"Diabetes at enrollment, ranolazine group (n = 1098), Final Visit",42%
same,Proportion of patients with HbA1c ≧7% by diabetes at enrollment,"Diabetes at enrollment, ranolazine group (n = 1098), Month 4",41%
same,Proportion of patients with HbA1c ≧7% by diabetes at enrollment,"Diabetes at enrollment, ranolazine group (n = 1098), Month 8",44%
same,Number of patients with HbA1c ≧7% by diabetes at enrollment,[1],63
same,Proportion of patients with HbA1c ≧7% by diabetes at enrollment,[1],48%
same,Proportion of patients with HbA1c ≧7% by diabetes at enrollment,"No Diabetes at enrollment, ranolazine group (n = 2170), Baseline",6%
same,Number of patients with HbA1c ≧7% by diabetes at enrollment,[2],92
same,Proportion of patients with HbA1c ≧7% by diabetes at enrollment,[2],6%
same,Number of patients with HbA1c ≧7% by diabetes at enrollment,[3],78
same,Proportion of patients with HbA1c ≧7% by diabetes at enrollment,[3],5%
same,Number of patients with HbA1c ≧7% by diabetes at enrollment,[4],72
same,Proportion of patients with HbA1c ≧7% by diabetes at enrollment,[4],6%
same,Number of patients with HbA1c ≧7% by diabetes at enrollment,[5],21
same,Proportion of patients with HbA1c ≧7% by diabetes at enrollment,[5],7%
same,Effect on serum HbA1c levels (FIGS. 1 and 2),all patients treated,HbA1c lowering effect on all patients treated; also recorded: significantly lowers serum HbA1C levels
same,Number of patients with HbA1C ≧7%,"all patients, ranolazine group (n = 3268), Month 16",84
same,Effect on HbA1c levels (FIG. 2),diabetic patients treated with ranolazine,reduction in the amount of HbA1C levels
same,Effect on HbA1c levels (FIG. 2),non-diabetic patients treated with ranolazine,reduction in the amount of HbA1C levels

# — patent publication US20080193530A1 (priority 2007, published 2008)
